According to PubChem BioAssay AID248 (DTP/NCI, 2004):
“And” between values parts separate entries of the source, which are not always exact repeats. Identical values can stand only once. Toxic doses and inconclusive results are not listed.

System: L1210 leukemia ip in BDF1 mice, survival T/C
Experiment: NCI In Vivo Anticancer Drug Screen. Data for tumor model L1210 Leukemia (intraperitoneal) in B6D2F1 (BDF1) mice
Settings: endpoint: mean survival time, higher = longer survival
Method in brief: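 In this screen, tumor-bearing mice given compound are compared to those given vehicle, and their survival values are reported as a treated-to-control quotient.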

[1] = dose: 100.0 mg/kg/injection, schedule: Q01DX009 (ip), vehicle: saline with Tween-80
[2] = dose: 200.0 mg/kg/injection, schedule: Q01DX009 (ip), vehicle: saline with Tween-80
[3] = dose: 100.0 mg/kg/injection, schedule: Q04DX002 (ip), vehicle: saline with Tween-80
[4] = dose: 100.0 mg/kg/injection, schedule: Q04DX003 (ip), vehicle: saline
[5] = dose: 200.0 mg/kg/injection, schedule: Q04DX003 (ip), vehicle: saline

Structure (SMILES): O=C(c1ccccc1)C(c1ccccc1)C(O)(C(F)(F)F)C(F)(F)F (stereo not drawn)
- T/C [1]: 103 % of control
- T/C [2]: 97 % of control

Structure (SMILES): O=C1C=C(N2CC2)C(=O)C(N2CC2)=C1N1CC1
- T/C (dose: 0.07 mg/kg/injection, schedule: Q01DX001 (ip), vehicle: saline): 112 % of control
- T/C (dose: 0.1 mg/kg/injection, schedule: Q01DX Z (ip), vehicle: saline): 93 % of control
- T/C (dose: 0.3 mg/kg/injection, schedule: Q01DX001 (ip), vehicle: saline): 155 % of control
- T/C (dose: 0.6 mg/kg/injection, schedule: Q01DX001 (ip), vehicle: saline): 87 % of control
- T/C (dose: 6.3 micrograms/kg/injection, schedule: Q01DX015 (ip), vehicle: saline): 107 % of control
- T/C (dose: 12.5 micrograms/kg/injection, schedule: Q01DX015 (ip), vehicle: saline): 102 % of control
- T/C (dose: 25.0 micrograms/kg/injection, schedule: Q01DX015 (ip), vehicle: saline): 113 % of control
- T/C (dose: 75.0 micrograms/kg/injection, schedule: Q01DX009 (ip), vehicle: saline): 113 % of control

Structure (SMILES): C=C(C)CC(N)Cc1ccccc1 (stereo not drawn)
- T/C (dose: 50.0 mg/kg/injection, schedule: Q04DX002 (ip), vehicle: saline with Tween-80): 89 % of control
- T/C [3]: 95 % of control and 103 % of control

Structure (SMILES): Cc1ccc(C)c(S(=O)(=O)OCC#CCOS(=O)(=O)c2cc(C)ccc2C)c1
- T/C (dose: 50.0 mg/kg/injection, schedule: Q01DX009 (ip), vehicle: saline with Tween-80): 92 % of control
- T/C [1]: 92 % of control
- T/C [4]: 97 % of control
- T/C [2]: 87 % of control
- T/C [5]: 97 % of control
- T/C (dose: 400.0 mg/kg/injection, schedule: Q04DX003 (ip), vehicle: saline): 91 % of control

Structure (SMILES): CSc1ccc(NC(=O)Nc2cccc(Cl)c2C)cc1
- T/C (dose: 50.0 mg/kg/injection, schedule: Q04DX003 (ip), vehicle: saline with Tween-80): 94 % of control
- T/C [1]: 96 % of control and 101 % of control
- T/C [3]: 93 % of control and 104 % of control
- T/C (dose: 100.0 mg/kg/injection, schedule: Q04DX003 (ip), vehicle: saline with Tween-80): 92 % of control
- T/C [2]: 100 % of control and 104 % of control
- T/C (dose: 200.0 mg/kg/injection, schedule: Q04DX002 (ip), vehicle: saline with Tween-80): 93 % of control and 97 % of control
- T/C (dose: 200.0 mg/kg/injection, schedule: Q04DX003 (ip), vehicle: saline with Tween-80): 87 % of control
- T/C (dose: 400.0 mg/kg/injection, schedule: Q01DX009 (ip), vehicle: saline with Tween-80): 104 % of control and 106 % of control
- T/C (dose: 400.0 mg/kg/injection, schedule: Q04DX002 (ip), vehicle: saline with Tween-80): 107 % of control and 88 % of control
- T/C (dose: 400.0 mg/kg/injection, schedule: Q04DX003 (ip), vehicle: saline with Tween-80): 88 % of control

Structure (SMILES): O=C(O)/C=C\C(=O)Nc1ccccc1[N+](=O)[O-]
- T/C (dose: 100.0 mg/kg/injection, schedule: Q04DX002 (ip), vehicle: Klucel (hydroxypropylcellulose) (HPC)): 90 % of control
- T/C (dose: 200.0 mg/kg/injection, schedule: Q04DX002 (ip), vehicle: Klucel (hydroxypropylcellulose) (HPC)): 114 % of control
- T/C (dose: 400.0 mg/kg/injection, schedule: Q04DX002 (ip), vehicle: Klucel (hydroxypropylcellulose) (HPC)): 104 % of control

Structure (SMILES): CCCCNC(=O)c1cc(Cl)cc(Cl)c1Br
- T/C (dose: 100.0 mg/kg/injection, schedule: Q01DX001 (ip), vehicle: saline with Tween-80): 91 % of control
- T/C (dose: 200.0 mg/kg/injection, schedule: Q01DX001 (ip), vehicle: saline with Tween-80): 90 % of control
- T/C (dose: 400.0 mg/kg/injection, schedule: Q01DX001 (ip), vehicle: saline with Tween-80): 93 % of control

Structure (SMILES): CSc1ccc(B2Oc3cc(Cl)c(Cl)cc3O2)cc1
- T/C (dose: 100.0 mg/kg/injection, schedule: Q04DX003 (ip), vehicle: alcohol): 124 % of control
- T/C (dose: 200.0 mg/kg/injection, schedule: Q04DX003 (ip), vehicle: alcohol): 95 % of control
- T/C (dose: 400.0 mg/kg/injection, schedule: Q04DX003 (ip), vehicle: alcohol): 100 % of control

Structure (SMILES): O=C(O)/C=C/C(=O)Nc1cc(Cl)cc2c1-c1c(Cl)cc(Cl)cc1C2O (stereo not drawn)
- T/C (dose: 100.0 mg/kg/injection, schedule: Q04DX003 (ip), vehicle: Klucel (hydroxypropylcellulose) (HPC)): 98 % of control
- T/C (dose: 200.0 mg/kg/injection, schedule: Q04DX003 (ip), vehicle: Klucel (hydroxypropylcellulose) (HPC)): 92 % of control
- T/C (dose: 400.0 mg/kg/injection, schedule: Q04DX003 (ip), vehicle: Klucel (hydroxypropylcellulose) (HPC)): 108 % of control

Structure (SMILES): O=C(C[n+]1ccccc1)c1ccc(Br)cc1
- T/C (dose: 50.0 mg/kg/injection, schedule: Q01DX009 (ip), vehicle: saline): 101 % of control
- T/C (dose: 100.0 mg/kg/injection, schedule: Q01DX001 (ip), vehicle: saline): 101 % of control
- T/C (dose: 100.0 mg/kg/injection, schedule: Q01DX009 (ip), vehicle: saline): 105 % of control

Structure (SMILES): NOCc1ccc(CON)cc1
- T/C [4]: 95 % of control
- T/C [5]: 97 % of control

Structure (SMILES): COc1cc(N)ccc1C(=O)NC(CCC(=O)O)C(=O)O (stereo not drawn)
- T/C (dose: 100.0 mg/kg/injection, schedule: Q01DX001 (ip), vehicle: Klucel (hydroxypropylcellulose) (HPC)): 103 % of control
- T/C (dose: 200.0 mg/kg/injection, schedule: Q01DX001 (ip), vehicle: Klucel (hydroxypropylcellulose) (HPC)): 100 % of control
- T/C (dose: 400.0 mg/kg/injection, schedule: Q01DX001 (ip), vehicle: Klucel (hydroxypropylcellulose) (HPC)): 103 % of control
